# Data from patent publication US11419865B2, “Method for inducing a sustained immune response” (Cytocom Inc., priority 2016, dated 2022).
# Assays:
# [1] = test system: A549 (lung) and HCT116 (CRC); test: continuous 48 h exposure, lung and CRC cells
# systemic lupus patients = test: systemic lupus case reports; format: in vivo, human
# Description: […]. […] […].
# Psoriasis mostly resolved.
# [2] = test system: autistic children, lymphocyte subsets; test: behavioral and immunological assessment in autism during double-blind naltrexone treatment; format: in vivo, human
# Description: Opioid-immune interactions in autism: behavioral and immunological assessment during a double-blind treatment with naltrexone.
# Changes in natural killer cells and activity were inversely related to plasma beta-endorphin levels.
# [3] = test system: psoriatic arthritis patient; test: psoriatic arthritis case report; format: in vivo, human
# [4] = test system: patients with hematologic malignancies; test: randomized controlled trial of quality of life (EORTC QLQ-C30), 89 hematologic cancer patients; format: in vivo, human
# Procedure: 89 patients Hematologic Cancer Patients This was a randomized controlled trial assessing quality of life in patients with hematologic malignancies from a single institute in Hamedan. […] Quality of life was measured using the EORTC QLQ-C30 in four points in time (at admission, 1, 3 and 5 months follow-up).
# Data were analyzed to compare quality of life in two groups. In total, 89 patients were studied (45 in treatment group and 44 in placebo group). There were no significant differences between two groups either in demographic and clinical characteristics or in baseline quality of life scores.
# This study aimed to investigate its effect on hematologic cancer patients. This was a randomized controlled trial assessing quality of life in patients with hematologic malignancies from a single institute. […] Quality of life was measured using the EORTC QLQ-C30 in four points in time (at admission, 1, 3 and 5 months follow-up). Data were analyzed to compare quality of life in two groups. Totally, 89 patients were studied (45 in treatment group and 44 in placebo group). There were no significant differences between two groups either in demographic and clinical characteristics or in baseline quality of life scores. However, at 1 month, 3 and 5-month follow-up assessments significant differences were observed. […].
# [5] = test system: patients with active Crohn's disease; test: 12-week study of 4.5 mg naltrexone/day in active Crohn's disease (17 patients); format: in vivo, human
# Procedure: . Infliximab was not allowed for a minimum of 8 weeks prior to study initiation. Other therapy for Crohn's disease that was at a stable dose for 4 weeks prior to enrollment was continued at the same doses. Patients completed the inflammatory bowel disease questionnaire (IBDQ) and the short-form (SF-36) quality of life surveys and CDAI scores were assessed pretreatment, every 4 weeks on therapy and 4 weeks after completion of the study drug. Drug was administered by mouth each evening for a 12-week period. RESULTS: Seventeen patients with a mean CDAI score of 356+/−27 were enrolled.
# MS patients = test: multiple sclerosis case reports; format: in vivo, human
# [6] = test system: children with moderate to severe Crohn's disease; test: pilot clinical trial in children with moderate to severe Crohn's disease; format: in vivo, human; design: patients in remission (PCDAI score≤10): unit not given here
# Procedure: A pilot clinical trial was conducted in children with moderate to severe Crohn's disease. Fourteen subjects with a mean age of 12.3 years (range, 8 to 17 y) were enrolled. […]. Safety and toxicity were monitored by physical examinations and blood chemistries. Clinical activity was assessed by the Pediatric Crohn's Disease Activity Index (PCDAI) and Quality of life was monitored by the Impact III survey. […] […].
# Hepatitis B = Hepatitis B case report; format: in vivo, human; conditions: 1 mg
# cancer patients = conditions: cited from earlier work
# AIDS [7] = conditions: 3.0 mg daily at bedtime, 12 weeks, cited from earlier work
# [8] = test system: patients with primary progressive multiple sclerosis (PPMS); test: six month phase II multicenter pilot trial in primary progressive multiple sclerosis, 40 patients; format: in vivo, human
# Procedure: […]. The primary end points were safety and tolerability. Secondary outcomes were efficacy on spasticity, pain, fatigue, depression, and quality of life. Clinical and biochemical evaluations were serially performed. Protein concentration of beta-endorphins (BE) and mRNA levels and allelic variants of the mu-opioid receptor gene (OPRM1) were analyzed.
# HIV = test: single blind 90 day randomized bridging clinical trial in Nigeria, asymptomatic HIV+ adults on ART; format: in vivo, human
# Procedure: The differences in CD4 count, CD4%, hemoglobin, viral load, interferon alpha, and standard chemistry panel were measured between treated versus non-treated groups four times throughout the study. […] When used alone, it appears to slow and/or stop the progression of the disease.
# [9] = test system: myasthenia gravis patient; test: myasthenia gravis case report; format: in vivo, human; conditions: drug interrupted
# AIDS [10] = test: 3-month double-blind then open trial in 38 AIDS patients (Kaposi's sarcoma / opportunistic infection); format: in vivo, human
# [11] = 0.1 mg/kg orally, end of the study
smiles,measurement,setting,value
"O=C1CC[C@@]2(O)[C@H]3Cc4ccc(O)c5c4[C@@]2(CCN3CC2CC2)[C@H]1O5 [Immediate release naltrexone, naltrexone]",effect on A549 and HCT116,[1],no effect
same,"MRSA recurrence, person, systemic lupus",systemic lupus patients; 1.5 mg,No recurrence of MRSA in 8 years
same,"tolerability, person, systemic lupus",systemic lupus patients; 1.5 mg starting dose,unable to take it due to insomnia and pruritis
same,"mobility, person, Systemic Lupus","systemic lupus patients; 3 mg from March 2013, within three weeks",improved mobility
same,"skin, person, Systemic Lupus","systemic lupus patients; 3 mg increasing to 4.5 mg, within 4 months",skin cleared almost 100%
same,"hospital stays, person, Systemic Lupus",systemic lupus patients; 4.5 mg,no hospital stays since March of 2013
same,"disease status, person, systemic lupus","systemic lupus patients; liquid form, 0.1 mg increased weekly to 1.5 mg, with supplements, diet","Lupus, in remission"
same,T-cytotoxic-suppressor (CD4−CD8+),[2],significant reduction
same,T-helper-inducers (CD4+CD8−),[2],significant increase
same,"medication use, person, psoriatic arthritis","[3]; 4.5 mg at bedtime, within 10 days",able to discontinue all paid medications as well as the Humira
same,"disease course, person, psoriatic arthritis","[3]; 4.5 mg, last six months",the disease has stabilized and the progressive deterioration has stopped
same,social functioning (EORTC QLQ-C30) vs placebo,"[4]; 3 mg capsules daily plus routine treatment, one month follow-up, p<0.05",better condition in the treatment group
same,blood laboratory tests,[4]; 3 mg daily,no changes in the blood laboratory tests
same,"social functioning, role functioning, nausea and vomiting and appetite loss vs placebo","[4]; 3 mg daily, 3-month follow-up, all p-values<0.05",better in the treatment group
same,"physical, social, role functioning, global quality of life, nausea and vomiting and appetite loss vs placebo","[4]; 3 mg daily, 5-month follow-up",significantly better
same,CDAI scores,"[5]; 4.5 mg/day by mouth each evening, 12 weeks, baseline mean 356+/−27, P=0.01",decreased significantly
same,laboratory abnormalities,"[5]; 4.5 mg/day, 12 weeks",No laboratory abnormalities were noted
same,patients with response to therapy,"[5]; 4.5 mg/day, 12 weeks",Eighty-nine
same,patients achieving remission,"[5]; 4.5 mg/day, 12 weeks, P<0.001",67%
same,CDAI scores after end of therapy,[5]; 4 weeks after completing therapy,remained lower than baseline
same,"quality of life surveys (IBDQ, SF-36)",[5]; compared with baseline,Improvement was recorded in both quality of life surveys
same,"first three months, person, Secondary Progressive MS",MS patients; 1.5 mg at bedtime increasing to 3 mg from July of 2005,no real improvement in the first three months accept no flair of MS
same,"disease course, person, relapsing remitting MS","MS patients; 1.5 mg increasing to 4.5 mg nightly with progesterone, estriol, Cortef",back at work for 5 years without an exacerbation
same,"MRI, person, secondary-progressive multiple sclerosis (SPMS)","MS patients; 1.5 mg then 3 mg from July of 2009, January of 2011",MRI showed reduced plaque and lesion size
same,"disease course, person, fast deteriorating M.S.","MS patients; 1.5 mg, 3 mg, then 4.5 mg for seven months",the disease has stabilized and the progressive deterioration has stopped
same,"disease course, person, M.S. of 35 years","MS patients; 3 mg for 30 days then 4.5 mg at bedtime, over three months",regained their ability to see and walk and their cognitive ability improved as well
same,"mobility, person four, Relapsing Remitting MS, wheelchair bound",MS patients; 3 mg nightly from July 2004,walking again with a cane for assistance within 10 days
same,"relapses, person two, Relapsing Remitting MS",MS patients; 4.5 mg at bedtime since 2002,has not had a one relapse
same,"side effects, person four, Relapsing Remitting MS",MS patients; 4.5 mg nightly from August of 2004,minimal side effects some insomnia
same,"relapses, person four, Relapsing Remitting MS","MS patients; 4.5 mg nightly, last update 2010",no relapses
same,"MRI, person two, Relapsing Remitting MS","MS patients; 4.5 mg, over the last 8 years",no progression of the disease
same,"mobility, person, Secondary Progressive MS","MS patients; months 3 to 6, later 4.5 mg",upgraded from wheelchair to cane
same,safety and tolerability,[6]; 0.1 mg/kg orally,well tolerated without any serious adverse events
same,patients improved with mild disease activity (decrease in PCDAI score by at least 10 points),[6]; [11],67%
same,patients in remission (PCDAI score≤10),[6]; [11],Twenty-five
same,Systemic and social quality of life (Impact III),[6]; P=0.035,improved
same,"additional benefits, child, Hepatitis B",Hepatitis B,resolutions of eczema
same,"serology, child, Hepatitis B",Hepatitis B; within 7 months,Sero-conversion to negative antigens and positive antibodies
same,"ALT/AST, child, Hepatitis B",Hepatitis B; within one month,decreased to normal
same,"viral load, child, Hepatitis B","Hepatitis B; within one month, from 59.2 million","53,000"
same,"disease course, person, adenocarcinoma of the pancreas with liver metastases","cancer patients; 4.5 mg once per day at bedtime with i.v. and oral ALA, selenium, silymarin, diet",comparatively stable disease for more than a 3-year period and an improved quality of life
same,"follow-up status, person, Follicular Lymphoma",cancer patients; 2007 report,"remains asymptomatic from their disease, 1 year after their last CT/PET imaging"
same,"disease outcome, person, Follicular Lymphoma","cancer patients; daily in the evening, after 6 months, not compliant with diet, supplement, ALA",clinical and radiological remission
same,lymphocyte mitogen responses,AIDS [7],declined on placebo and not on Immediate release naltrexone
same,pathologically elevated levels of acid-labile alpha interferon,AIDS [7],declined significantly
same,incidence of opportunistic infections (patients),AIDS [7]; placebo 5 out of 16 (31%),0 of the 22
same,Neurological disability,[8]; 40 patients,progressed in only one patient
same,dropouts and major adverse events,[8]; 40 patients,Five dropouts and two major adverse events occurred
same,spasticity,[8]; end of the six month trial,significant reduction of spasticity
same,beta-endorphins (BE) concentration,"[8]; human, in vivo",increased during the trial
same,safety and tolerability,"[8]; human, in vivo",safe and well tolerated
same,increase in CD4 count,"HIV; about 4.5 mg single oral dose with ART, at 3 months",44%
same,BMI,HIV; about 4.5 mg with ART,increase in BMI
same,opportunistic infections,HIV; about 4.5 mg with ART,reduction in opportunistic infections
same,improvement in CD4 count vs control group,"HIV; about 4.5 mg with ART, at 3 months, control 54 subjects",significantly greater than the control group
same,Improvement in CD4%,"HIV; about 4.5 mg with ART, throughout treatment",the increases were statistically significant
same,"effect of running out of drug, person, myasthenia gravis",[9],symptoms began to return within 72 hours
same,elevated levels of serum alpha interferon (IFN-α) vs placebo,"AIDS [10]; 1.75 mg nightly at bedtime, 3-month double-blind period, p<0.01",significant drop
same,survival of patients who did not show a decline in IFN-α,AIDS [10]; 2 of the 15,13%
same,mean IFN-α level after treatment,"AIDS [10]; 23 patients with decline, from mean 144.9 IU. over a 12-month period",11.0 IU.
same,survival of patients who showed a decline in IFN-α,"AIDS [10]; Nineteen of the 23, p<0.01",83%
same,side effects,AIDS [10]; during the conduct of the trial,No side effects were noted
